Laboratory results as given in ChEMBL document CHEMBL1156829 (Proc Natl Acad Sci U S A, 2008).
Where a name gives a salt, the structure may show the parent alone. Numbered stars: 1 amine (or outer) side, 2 acyl side, 3 side chain; on linkers, the order of the positions; unused ones are H or OH. Bridge positions count the residues as written; N and C are the ends. Square brackets hold non-standard residues; d marks the D form. Peptide text beside a SMILES is read from it. I, II: the chains in the order shown. * marks the point of attachment. ξ: configuration not given here. Actinocin(9to1) = Cc1c2oc3c(C)ccc(C(=O)[*:1])c3nc-2c(C(=O)[*:2])c(N)c1=O; X1 = CCC(=O)CC(O)C[C@@H](C)C[C@H](N[*:1])C(=O)[*:2]; Hexenoyl(2E,4S-Me) = CC[C@H](C)/C=C/C(=O)*; Leu(3R-OH) = CC(C)[C@@H](O)[C@H](N)C(=O)O; NH((S)CH(Me)CH2NMe2) = C[C@@H](CN(C)C)N*; Pro(4S-Me) = C[C@@H]1CN[C@H](C(=O)O)C1; ξNMeV = CNC(C(=O)O)C(C)C; Boc = CC(C)(C)OC(=O)*; Aib = CC(C)(N)C(=O)O; ξT = CC(O)C(N)C(=O)O; OBn = c1ccc(CO*)cc1; NHCH2CH2OH = OCCN*; ξP = O=C(O)C1CCCN1; βAla = NCCC(=O)O; Sar = CNCC(=O)O; For = O=C*

Assays:
Plasmodium falciparum [1] = assay: NOVARTIS: Inhibition of Plasmodium falciparum 3D7 (drug-susceptible) proliferation in erythrocyte-based infection assay; assay type: functional, organism-based; conditions: Plasmodium falciparum, 3D7
Plasmodium falciparum [2] = assay: NOVARTIS: Inhibition of Plasmodium falciparum W2 (drug-resistant) proliferation in erythrocyte-based infection assay; assay type: functional, organism-based; conditions: Plasmodium falciparum, W2; read-out: EC50
[3] = NOVARTIS: Cytotoxicity against human hepatocellular carcinoma cell line (Huh7); assay type: toxicity, cell-based, Huh-7; conditions: Huh7 cells (hepatocellular carcinoma cell line)

Row | SMILES | EC50 (Plasmodium falciparum [1]) [nM] | EC50 (Plasmodium falciparum [2]) [nM] | CC50 [3] [nM]
1 | O=C(c1cnn(-c2ccccc2)c1C(F)(F)F)N1CCN(c2ccnc3cc(Cl)ccc23)CC1 | 349 | 88.2 | > 100000
2 | O=[N+]([O-])c1ccc(N2CCCN(C(=S)Nc3ccc(F)cc3Br)CC2)nc1 | 110 | 90.3 | > 100000
3 | COc1cc(OC)c(NC(=O)C2c3ccccc3C(=O)N(CC(C)C)C2c2cccs2)cc1Cl (stereo unspecified) | 114 | 90.5 | > 100000
4 | O=C(N1CCN(c2ccc(C(F)(F)F)cc2[N+](=O)[O-])CC1)C(Cl)(Cl)Cl | 263 | 86.6 | > 95000
5 | CCCN(CCC)[P+](CCC)(c1ccc([P+](CCC)(N(CCC)CCC)N(CCC)CCC)cc1)N(CCC)CCC | 193 | 66.8 | 72600
6 | c1ccc2c(c1)OC13CCCCC1C2NCC3 (stereo unspecified) | 270 | 43.6 | 48600
7 | CCOC(=O)c1cccc(NC(=O)CC2C(=O)N(c3ccccc3)C(=O)N2C2CCCC2)c1 (stereo unspecified) | 276 | 88.4 | > 100000
8 | Cc1ccn2c(NC(C)(C)CC(C)(C)C)c(-c3ccccc3OC(=O)c3ccccc3C)nc2c1 | 757 | < 9.03 | > 10000
9 | COc1cccc(-c2ccc(O)c(CN(C)CCc3ccc(OC)c(OC)c3)c2)n1 | 337 | 52.3 | 57900
10 | CC(=NO)c1ccc(NC2=C(N3CCCCC3)C(=O)c3ccccc3C2=O)cc1 | 94.1 | 90 | > 100000
11 | CCOC(=O)c1cccc(NC(=O)CCn2c(-c3ccc(F)cc3)cc(C(=O)OCC)c2C)c1 | 59 | 89.7 | > 100000
12 | O=C1C(=Cc2ccccc2)Oc2c1ccc(O)c2CN1CCCCC1 | 1420 | 91 | > 100000
13 | O=C(c1cccc([N+](=O)[O-])c1)c1ccc(Cl)c(Cl)c1 | 612 | 57.5 | 62400
14 | CCOc1ccc(Nc2cc(=O)oc3ccccc23)cc1 | 610 | 91.9 | > 100000
15 | COc1ccc(CCN2C(=O)N(CC(C)C)C(=O)C23CCN(Cc2ccccc2O)CC3)cc1 | 225 | 93.1 | > 100000
16 | CCCCS(=O)(=O)N(C)CCCNc1ccnc2cc(Cl)ccc12 | 68.8 | < 9.18 | > 10000
17 | CCCOC(=O)C1=C(C)NC2=C(C(=O)CC(c3ccc(OC)c(OC)c3)C2)C1c1ccc(Cl)c(Cl)c1 (stereo unspecified) | 143 | 49.2 | 52600
18 | CCc1ccc(C(=O)Oc2ccccc2-c2nc3cc(C)ccn3c2NC(C)(C)CC(C)(C)C)cc1 | 454 | < 9.29 | > 10000
19 | C[C@@H]1CCC[C@@H](C[C@H]2Cc3cc(O)cc(O)c3C(=O)O2)O1 | 45.4 | 92.7 | > 100000
20 | COC(=O)C1=C(C)NC2=C(C(=O)CC(c3ccc(OC)cc3)C2)C1c1ccccc1F (stereo unspecified) | 231 | 88.4 | > 100000
21 | Cc1ccn2c(NC(C)(C)CC(C)(C)C)c(-c3ccccc3OC(=O)c3ccc(Cl)cc3Cl)nc2c1 | 728 | < 8.81 | > 10000
22 | CC(=O)N(C1=C(N2CCCCC2)C(=O)c2ccccc2C1=O)c1ccccc1C | 34 | 18.1 | 20200
23 | CN1CCN=C1c1ccc(NC(=O)c2ccc(C(=O)Nc3ccc(C4=NCCN4C)cc3)c([N+](=O)[O-])c2)cc1 | 72.5 | 9.13 | > 10000
24 | O=C(Nc1ccc(C2=NCCCN2)cc1)c1ccc(C(=O)Nc2ccc(C3=NCCCN3)cc2)cc1 | 120 | 93.2 | > 100000
25 | CCCCN(C)Cc1cc(-c2cccc(OC)n2)ccc1O | 875 | 90.3 | > 100000
26 | CC(C)CC(NC(=O)OC(C)(C)C)C(=O)NC(Cc1ccccc1)C(=O)OCc1ccccc1 (stereo not drawn) (Boc-Leu-Phe-OBn; configuration not given here) | > 12500 | 2950 | > 100000

Row | SMILES | EC50 (Plasmodium falciparum [1]) [nM] | EC50 (Plasmodium falciparum [2]) [nM] | CC50 [3] [nM]
27 | CC(C)C[C@@H](NC(=O)[C@H](C)NC(=O)CNC(=O)[C@@H](NC=O)C(C)C)C(=O)N[C@@H](C)C(=O)N[C@@H](C(=O)N[C@H](C(=O)N[C@@H](C(=O)N[C@@H](Cc1c[nH]c2ccccc12)C(=O)N[C@H](CC(C)C)C(=O)N[C@@H](Cc1c[nH]c2ccccc12)C(=O)N[C@H](CC(C)C)C(=O)N[C@@H](Cc1c[nH]c2ccccc12)C(=O)N[C@H](CC(C)C)C(=O)N[C@@H](Cc1c[nH]c2ccccc12)C(=O)NCCO)C(C)C)C(C)C)C(C)C (For-VGA[dL]A[dV]V[dV]W[dL]W[dL]W[dL]W-NHCH2CH2OH) | 2890 | 2990 | 98800
28 | Cc1c2oc3c(C)ccc(C(=O)NC4C(=O)N[C@@H](C(C)C)C(=O)N5CCCC5C(=O)N(C)CC(=O)N(C)C(C(C)C)C(=O)OC4C)c3nc-2c(C(=O)NC2C(=O)N[C@H](C(C)C)C(=O)N3CCCC3C(=O)N(C)CC(=O)N(C)C(C(C)C)C(=O)OC2C)c(N)c1=O (stereo partly specified) (I: [ξT]V[ξP][Sar][ξNMeV] / II: [ξT][dV][ξP][Sar][ξNMeV]; ester I:1-I:C, II:1-II:C; linker I:N-II:N via Actinocin(9to1)) | 25.9 | 20.7 | 296
29 | CC(C)C[C@@H]1NC(=O)[C@@H](CC(C)C)NC(=O)[C@H](C(C)C)NC(=O)[C@H]2CSSC[C@@H](NC1=O)C(=O)N2 (cyclo(L[dC][dC]V[dL]); disulfide 2-3) | > 1250 | 164 | > 10000
30 | CCC(=O)CC(O)C[C@@H](C)C[C@H](NC(=O)[C@@H]1C[C@H](C)CN1C(=O)/C=C/[C@@H](C)CC)C(=O)N[C@H](C(=O)NC(C)(C)C(=O)N[C@@H](CC(C)C)C(=O)N[C@@H](CC(C)C)C(=O)NC(C)(C)C(=O)NC(C)(C)C(=O)NCCC(=O)N[C@@H](C)CN(C)C)[C@H](O)C(C)C (stereo partly drawn) ({Hexenoyl(2E,4S-Me)}-[Pro(4S-Me)][X1][Leu(3R-OH)][Aib]LL[Aib][Aib][βAla]-{NH((S)CH(Me)CH2NMe2)}) | 194 | 651 | 6470
31 | CCCn1c(=O)c2[nH]c(C3CCCC3)nc2n(CCC)c1=O [1,3-DIPROPYL-8-CYCLOPENTYLXANTHINE [DPCPX]] | 764 | 346 | […]
32 | N/C(=N\C(=O)c1nc(Cl)c(N)nc1N)NCc1ccc(Cl)c(Cl)c1 [3',4' DICHLOROBENZAMIL] | 89.6 | 283 | 4590
33 | COc1cc([C@@H]2OC[C@@H]3[C@H]2CO[C@H]3c2cc(OC)c(O[C@@H]3O[C@H](CO)[C@@H](O)[C@H](O)[C@H]3O)c(OC)c2)cc(OC)c1O [ACANTHOSIDE B] | 771 | 388 | > 10000
34 | CCN1CCN(Cc2ccc(-c3cc4c(N[C@H](C)c5ccccc5)ncnc4[nH]3)cc2)CC1 [AEE-788] | 1380 | 28.5 | 27800
35 | CCN(CC)CCCC(C)Nc1cc(/C=C/c2ccccc2Cl)nc2cc(Cl)ccc12 (stereo unspecified) [AMINOQUINOL] | 178 | 283 | > 10000
36 | COc1ccc(C[C@H]2NC[C@H](O)[C@H]2OC(C)=O)cc1 [ANISOMYCIN] | 9.75 | 10.3 | > 2360
37 | C[C@@H]1CC[C@H]2[C@@H](C)C(=O)O[C@@H]3O[C@@]4(C)CC[C@@H]1[C@]32OO4 [ARTEMISININ] | 43 | 10.3 | > 10000
38 | C[C@H]1[C@@H](O)O[C@@H]2O[C@@]3(C)CC[C@H]4[C@H](C)CC[C@@H]1[C@@]24OO3 [ARTENIMOL] | 11.8 | 7.1 | 44900
39 | COc1ccc(CCN2CCC(Nc3nc4ccccc4n3Cc3ccc(F)cc3)CC2)cc1 [ASTEMIZOLE] | 447 | 711 | 20900
40 | COc1ccc2cc3[n+](cc2c1OC)CCc1cc2c(cc1-3)OCO2 [BERBERINE CHLORIDE] | 218 | 442 | > 100000
41 | CCOC(=O)c1cnc2cc(OCC(C)C)c(OCC(C)C)cc2c1O [BUQUINOLATE] | 649 | 958 | > 10000
42 | CC[C@H]1CN2CCc3cc(OC)c(OC)cc3[C@@H]2C[C@@H]1C[C@H]1NCCc2cc(O)c(OC)cc21 [CEPHAELINE HYDROBROMIDE] | 3.61 | 4.23 | 26.1
43 | CC1(C)N=C(N)N=C(N)N1c1ccc(Cl)cc1 [CHLORCYCLOGUANIL HYDROCHLORIDE] | 0.986 | 884 | 27400
44 | CCN(CC)CCCC(C)Nc1ccnc2cc(Cl)ccc12 (stereo unspecified) [CHLOROQUINE] | 2.43 | 83.7 | 12400
45 | C=C[C@H]1CN2CC[C@H]1C[C@@H]2[C@@H](O)c1ccnc2ccccc12 [CINCHONINE] | 95.3 | 110 | > 6250
46 | CC(CCCNCCO)Nc1ccnc2cc(Cl)ccc12 (stereo unspecified) [CLETOQUINE] | 26.9 | 736 | 14000
47 | Clc1ccccc1C(c1ccccc1)(c1ccccc1)n1ccnc1 [CLOTRIMAZOLE] | 280 | 338 | 25800
48 | C[C@@H]1C[C@@H]([C@H](O)CC2CC(=O)NC(=O)C2)C(=O)[C@@H](C)C1 [CYCLOHEXIMIDE] | 114 | 182 | > 100000
49 | Cc1cc(N)c2ccccc2[n+]1CCCCCCCCCC[n+]1c(C)cc(N)c2ccccc21 [DEQUALINIUM CHLORIDE] | 61.4 | 19.7 | 31000
50 | N[C@@H](COP(=O)(O)O)C(=O)O [DEXFOSFOSERINE] | 1080 | > 1060 | > 10000
51 | CC(C)[C@@]1(NC(=O)[C@@H]2C[C@@H]3c4cccc5[nH]cc(c45)C[C@H]3N(C)C2)O[C@@]2(O)[C@@H]3CCCN3C(=O)[C@H](Cc3ccccc3)N2C1=O [DIHYDROERGOCRISTINE] | 1250 | 449 | 33100
52 | CCC1CN2CCC1CC2[C@@H](O)c1ccnc2ccc(OC)cc12 (stereo partly specified) [DIHYDROQUINIDINE] | 27.3 | 25.7 | > 96000
